In patent publication US9730871B2, “Antiperspirant/deodorant cosmetic compositions” (Colgate-Palmolive Company, priority 2012, dated 2017):

Test system: staphylococcus hemolyticus
Experiment: Growth of underarm bacteria on agar plates coated with stick formulation, colony count
Type: cell-based
Conditions: for Bacteria count: 37° C., 16 hours, 0% control count 172; for Effect on growth / colony formation of staphylococcus hemolyticus (in words): sticks with 5-15% lauric acid coated on agar
Description: Four simplified stick compositions, each comprising 20% stearyl alcohol gellant and 0%, 5%, 10% and 15% lauric acid, respectively, were prepared. Stearyl alcohol is not considered to be an antibacterial agent. The remainder of each stick consisted of C12-C15 alkyl benzoates, which are synthetic emollients with no antibacterial activity.
A thin layer of each formulation was coated onto an agar plate, by moving the stick across the surface of the plate. A solution of staphylococcus hemolyticus bacteria at 0.1 optical density as measured by UV spectroscopy was diluted by a factor of 40. […] of the bacterial solution was then applied to the agar plate. The plate was incubated at 37° C. for 16 hours. The number of colonies formed on each plate was then recorded.

CCCCCCCCCCCC(=O)O [Laurie acid, lauric acid]
Bacteria count (5% lauric acid in stick with 20% stearyl alcohol and C12-C15 alkyl benzoates): 120 | Bacteria count (10% lauric acid in stick with 20% stearyl alcohol and C12-C15 alkyl benzoates): 102 | Bacteria count (15% lauric acid in stick with 20% stearyl alcohol and C12-C15 alkyl benzoates): 49 | Effect on growth / colony formation of staphylococcus hemolyticus (in words): inhibit the growth | Effect on growth / colony formation of staphylococcus hemolyticus (in words) (listed as lauric acid): reduction on the number of bacterial colonies formed
